Source: patent publication EP4512396A1, “TARGETED COVALENT INHIBITORS FOR CARBONIC ANHYDRASES” (Vilnius University, priority 2023, dated 2025)

Tests used:
CAIX = experiment: stopped-flow CO2 hydration assay before and after dialysis (irreversible enzyme inactivation); format: biochemical, human; conditions: for catalytic activity of CAIX after 32 hours of dialysis: […] CAIX incubated 2 h with 15 µM AV19-37 or 100 µM AV19-36, dialyzed in Tris buffer pH 7
CAIII [1] = molecular target: T1, CAIII (Homo sapiens, UniProt P07451); experiment: fluorescent thermal shift assay (FTSA); format: binding
CA XIV = CA XIV (Homo sapiens, UniProt Q9ULX7); experiment: fluorescent thermal shift assay (FTSA); format: binding; conditions: FTSA at 37 °C and pH 7.0, read-out: Kd_app
CAXII = CAXII (Homo sapiens, UniProt O43570); experiment: fluorescent thermal shift assay (FTSA); format: binding; conditions: FTSA at 37 °C and pH 7.0, read-out: Kd_app
CAVI = CAVI (Homo sapiens, UniProt P23280); experiment: fluorescent thermal shift assay (FTSA); format: binding; conditions: FTSA at 37 °C and pH 7.0, read-out: Kd_app
CAVII = CAVII (Homo sapiens, UniProt P43166); experiment: fluorescent thermal shift assay (FTSA); format: binding; conditions: FTSA at 37 °C and pH 7.0, read-out: Kd_app
CA VA = CA VA (Homo sapiens, UniProt P35218); conditions: pH 7
CA IV = CA IV (Homo sapiens, UniProt P22748); experiment: biochemical
CA VB = CA VB (Homo sapiens, UniProt Q9Y2D0); experiment: fluorescent thermal shift assay (FTSA); format: binding; conditions: FTSA at 37 °C and pH 7.0, read-out: Kd_app
CAXIII = CAXIII (Homo sapiens, UniProt Q8N1Q1); experiment: fluorescent thermal shift assay (FTSA); format: binding; conditions: FTSA at 37 °C and pH 7.0, read-out: Kd_app
CAIII [2] = molecular target: T1, CAIII; experiment: Q-TOF mass spectrometry of covalent binding; conditions: CAIII in the presence of ligand

T1 sequence (P07451 whole entry): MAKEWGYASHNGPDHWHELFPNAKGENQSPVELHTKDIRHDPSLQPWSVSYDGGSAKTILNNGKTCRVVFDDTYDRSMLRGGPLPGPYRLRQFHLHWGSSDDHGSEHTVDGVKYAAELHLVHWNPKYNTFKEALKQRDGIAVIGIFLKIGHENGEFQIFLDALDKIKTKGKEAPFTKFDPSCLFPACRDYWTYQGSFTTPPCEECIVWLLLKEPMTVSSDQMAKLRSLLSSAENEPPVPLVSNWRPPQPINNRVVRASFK
Sequence of CAXII (O43570 25-354): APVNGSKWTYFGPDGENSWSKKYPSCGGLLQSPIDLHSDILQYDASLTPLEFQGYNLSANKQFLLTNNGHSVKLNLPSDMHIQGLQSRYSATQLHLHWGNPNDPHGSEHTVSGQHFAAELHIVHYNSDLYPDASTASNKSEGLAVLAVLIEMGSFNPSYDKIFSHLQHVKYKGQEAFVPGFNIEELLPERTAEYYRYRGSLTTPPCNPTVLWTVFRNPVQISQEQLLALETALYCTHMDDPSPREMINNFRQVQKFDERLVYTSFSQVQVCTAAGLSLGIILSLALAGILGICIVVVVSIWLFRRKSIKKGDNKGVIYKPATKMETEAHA
Sequence of CAXIII (Q8N1Q1 whole entry): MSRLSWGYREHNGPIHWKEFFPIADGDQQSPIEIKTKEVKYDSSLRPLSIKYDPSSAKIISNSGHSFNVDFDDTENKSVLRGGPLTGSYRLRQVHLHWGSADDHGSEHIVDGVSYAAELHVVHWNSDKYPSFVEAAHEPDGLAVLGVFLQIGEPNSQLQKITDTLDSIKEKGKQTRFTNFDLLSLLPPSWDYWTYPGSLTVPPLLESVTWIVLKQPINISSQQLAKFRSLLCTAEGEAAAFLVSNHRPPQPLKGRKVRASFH
Sequence of CA IV (P22748 19-284): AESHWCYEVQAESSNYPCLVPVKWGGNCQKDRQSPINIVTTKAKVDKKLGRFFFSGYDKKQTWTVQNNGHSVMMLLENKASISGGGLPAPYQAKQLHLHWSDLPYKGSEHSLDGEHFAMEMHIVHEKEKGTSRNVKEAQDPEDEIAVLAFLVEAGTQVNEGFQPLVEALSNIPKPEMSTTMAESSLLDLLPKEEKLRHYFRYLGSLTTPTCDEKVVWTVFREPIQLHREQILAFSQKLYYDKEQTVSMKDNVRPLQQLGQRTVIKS
Sequence of CA XIV (Q9ULX7 16-337): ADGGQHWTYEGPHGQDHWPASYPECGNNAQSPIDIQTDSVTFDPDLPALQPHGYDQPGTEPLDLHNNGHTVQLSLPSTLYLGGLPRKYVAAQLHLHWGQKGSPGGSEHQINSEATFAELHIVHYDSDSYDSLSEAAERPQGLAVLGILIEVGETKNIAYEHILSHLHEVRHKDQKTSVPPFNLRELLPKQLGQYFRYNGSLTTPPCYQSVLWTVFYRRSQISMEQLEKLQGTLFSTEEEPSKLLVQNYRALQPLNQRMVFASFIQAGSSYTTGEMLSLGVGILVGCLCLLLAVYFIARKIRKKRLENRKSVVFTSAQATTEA
Sequence of CAVII (P43166 whole entry): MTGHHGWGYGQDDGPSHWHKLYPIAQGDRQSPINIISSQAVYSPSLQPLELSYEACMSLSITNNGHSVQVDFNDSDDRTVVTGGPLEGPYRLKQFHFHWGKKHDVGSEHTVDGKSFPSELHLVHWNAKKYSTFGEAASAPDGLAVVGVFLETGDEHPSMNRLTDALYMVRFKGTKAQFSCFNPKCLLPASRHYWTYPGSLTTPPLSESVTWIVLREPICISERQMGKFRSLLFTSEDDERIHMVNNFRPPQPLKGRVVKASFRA
Sequence of CAVI (P23280 21-290 limits assumed): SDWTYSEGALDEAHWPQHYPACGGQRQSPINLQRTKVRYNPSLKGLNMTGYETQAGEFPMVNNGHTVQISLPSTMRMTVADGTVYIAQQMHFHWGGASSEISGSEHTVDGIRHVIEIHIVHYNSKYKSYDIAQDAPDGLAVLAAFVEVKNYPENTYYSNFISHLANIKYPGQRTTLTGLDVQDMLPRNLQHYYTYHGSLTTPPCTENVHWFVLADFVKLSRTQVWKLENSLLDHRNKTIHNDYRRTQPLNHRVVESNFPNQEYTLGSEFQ
Sequence of CA VA (P35218 39-305): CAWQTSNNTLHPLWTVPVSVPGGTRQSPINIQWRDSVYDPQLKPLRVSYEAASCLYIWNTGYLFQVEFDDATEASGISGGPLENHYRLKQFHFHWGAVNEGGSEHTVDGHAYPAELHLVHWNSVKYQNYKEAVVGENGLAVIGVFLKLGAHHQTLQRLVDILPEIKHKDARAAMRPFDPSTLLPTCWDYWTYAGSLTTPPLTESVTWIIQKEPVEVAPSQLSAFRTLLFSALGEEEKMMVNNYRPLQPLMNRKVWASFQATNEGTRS
Sequence of CA VB (Q9Y2D0 34-317): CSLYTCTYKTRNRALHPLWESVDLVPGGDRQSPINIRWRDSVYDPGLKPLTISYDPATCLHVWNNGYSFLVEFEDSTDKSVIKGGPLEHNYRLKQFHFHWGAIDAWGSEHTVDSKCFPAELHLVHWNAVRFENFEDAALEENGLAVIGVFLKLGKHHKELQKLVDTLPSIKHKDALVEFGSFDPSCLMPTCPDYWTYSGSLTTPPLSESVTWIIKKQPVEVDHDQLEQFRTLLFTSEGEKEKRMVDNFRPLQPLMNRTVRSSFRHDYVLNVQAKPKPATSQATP

Row | SMILES | catalytic activity of CAIX after 32 hours of dialysis (CAIX) | Kd (CAIII [1]) [nM] | Kd (CA XIV) [nM] | Kd (CAXII) [nM] | Kd (CAVI) [nM] | Kd (CAVII) [nM] | Kd (CA VA) [nM] | Kd (CA IV) [nM] | Kd (CA VB) [nM] | Kd (CAXIII) [nM] | catalytic activity of CAIX after 2 hours of incubation with compound (CAIX; […] CAIX, 15 µM AV19-37, CO2 hydration, 25 °C, pH 7.5) | covalent modification by MS (CAIII [2])
1 | CC(=O)OCCSc1c(F)c(F)c(S(N)(=O)=O)c(F)c1F [AV19-36, 2-((2,3,5,6-tetrafluoro-4-sulfamoylphenyl)thio)ethyl acetate] | partially restored its catalytic activity |  |  |  |  |  |  |  |  |  |  | 
2 | NS(=O)(=O)c1c(F)c(F)c(S(=O)(=O)CCOC(=O)Cc2ccccc2)c(F)c1F [AV21-25, 2-((2,3,5,6-tetrafluoro-4-sulfamoylphenyl)sulfonyl)ethyl 2-phenylacetate] |  | 18000 | 0.28 | 0.072 | 0.36 | 0.83 | 2.5 | 45 | 0.017 | 0.012 |  | 
3 | CC(=O)OCCS(=O)(=O)c1c(F)c(F)c(S(N)(=O)=O)c(F)c1NC1CCCCCCC1 [AV19-37, 2-((2-(cyclooctylamino)-3,5,6-trifluoro-4-sulfamoylphenyl)sulfonyl)ethyl acetate] | not restored |  |  |  |  |  |  |  |  |  | lost its catalytic activity | did not show a covalent modification
